# Assay results as given in PubChem BioAssay (NCI).
#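 Exposure lasted 48 hours, with cells grown in 96-well plates and compounds tested at five concentrations. TGI is the concentration that stops growth completely.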
# How the values were obtained:
# Experiment in all cases: NCI tumour cell line growth inhibition, 48 h
# NCI-H226 lung = test system: NCI-H226 lung
# SW-620 colon = test system: SW-620 colon
# UO-31 renal = test system: UO-31 renal
# SK-MEL-5 melanoma = test system: SK-MEL-5 melanoma
# SNB-78 CNS = test system: SNB-78 CNS
# OVCAR-8 ovarian = test system: OVCAR-8 ovarian
# SF-295 CNS = test system: SF-295 CNS
# CCRF-CEM leukemia = test system: CCRF-CEM leukemia
# NCI-H522 lung = test system: NCI-H522 lung
# SK-MEL-2 melanoma = test system: SK-MEL-2 melanoma
# A549 NSCLC = test system: A549 NSCLC
# 786-0 renal = test system: 786-0 renal
# SK-MEL-28 melanoma = test system: SK-MEL-28 melanoma
# SNB-75 CNS = test system: SNB-75 CNS
# LXFL 529 NSCLC = test system: LXFL 529 NSCLC
# CAKI-1 renal = test system: CAKI-1 renal
# NCI-H460 lung = test system: NCI-H460 lung
# SF-539 CNS = test system: SF-539 CNS
# HOP-18 NSCLC = test system: HOP-18 NSCLC
# SK-OV-3 ovarian = test system: SK-OV-3 ovarian
# M14 melanoma = test system: M14 melanoma
# HCT-15 colon = test system: HCT-15 colon
# OVCAR-5 ovarian = test system: OVCAR-5 ovarian
# MOLT-4 leukemia = test system: MOLT-4 leukemia
# HOP-62 NSCLC = test system: HOP-62 NSCLC
# HL-60(TB) leukemia = test system: HL-60(TB) leukemia
# UACC-257 melanoma = test system: UACC-257 melanoma
# K-562 leukemia = test system: K-562 leukemia
# HT29 colon = test system: HT29 colon
# RPMI-8226 leukemia = test system: RPMI-8226 leukemia
# UACC-62 melanoma = test system: UACC-62 melanoma
# TK-10 renal = test system: TK-10 renal
# XF 498 CNS = test system: XF 498 CNS
# LOX IMVI melanoma = test system: LOX IMVI melanoma
# DMS 114 small cell lung = test system: DMS 114 small cell lung
# HCT-116 colon = test system: HCT-116 colon
# DLD-1 colon = test system: DLD-1 colon
# A498 renal = test system: A498 renal
# MALME-3M melanoma = test system: MALME-3M melanoma
# HOP-92 NSCLC = test system: HOP-92 NSCLC
# SNB-19 CNS = test system: SNB-19 CNS
# KM20L2 colon = test system: KM20L2 colon
# IGROV1 ovarian = test system: IGROV1 ovarian
# DMS 273 small cell lung = test system: DMS 273 small cell lung
# RXF 393 renal = test system: RXF 393 renal
# OVCAR-4 ovarian = test system: OVCAR-4 ovarian
# U251 CNS = test system: U251 CNS
# SF-268 CNS = test system: SF-268 CNS
# HCC-2998 colon = test system: HCC-2998 colon
# EKVX NSCLC = test system: EKVX NSCLC
# ACHN renal = test system: ACHN renal
# KM12 colon = test system: KM12 colon
# NCI-H23 lung = test system: NCI-H23 lung
# M19-MEL melanoma = test system: M19-MEL melanoma
# SN12C renal = test system: SN12C renal
# COLO 205 colon = test system: COLO 205 colon
# OVCAR-3 ovarian = test system: OVCAR-3 ovarian
# SR leukemia = test system: SR leukemia
compound,measurement,setting,value
CN(C)c1nc(=Nc2ccc3c(c2)OCO3)ss1,TGI,NCI-H226 lung,> 100 µM
same,TGI,SW-620 colon,> 100 µM
same,TGI,UO-31 renal,83.3 µM
same,TGI,SK-MEL-5 melanoma,> 100 µM
same,TGI,SNB-78 CNS,> 100 µM
same,TGI,OVCAR-8 ovarian,> 100 µM
same,TGI,SF-295 CNS,> 100 µM
same,TGI,CCRF-CEM leukemia,> 100 µM
same,TGI,NCI-H522 lung,> 100 µM
same,TGI,SK-MEL-2 melanoma,> 100 µM
same,TGI,A549 NSCLC,> 100 µM
same,TGI,786-0 renal,> 100 µM
same,TGI,SK-MEL-28 melanoma,> 100 µM
same,TGI,SNB-75 CNS,66 µM
same,TGI,LXFL 529 NSCLC,> 100 µM
same,TGI,CAKI-1 renal,> 100 µM
same,TGI,NCI-H460 lung,> 100 µM
same,TGI,SF-539 CNS,> 100 µM
same,TGI,HOP-18 NSCLC,> 100 µM
same,TGI,SK-OV-3 ovarian,> 100 µM
same,TGI,M14 melanoma,> 100 µM
same,TGI,HCT-15 colon,> 100 µM
same,TGI,OVCAR-5 ovarian,> 100 µM
same,TGI,MOLT-4 leukemia,78.4 µM
same,TGI,HOP-62 NSCLC,> 100 µM
same,TGI,HL-60(TB) leukemia,60 µM
same,TGI,UACC-257 melanoma,> 100 µM
same,TGI,K-562 leukemia,> 100 µM
same,TGI,HT29 colon,> 100 µM
same,TGI,RPMI-8226 leukemia,57.8 µM
same,TGI,UACC-62 melanoma,> 100 µM
same,TGI,TK-10 renal,> 100 µM
same,TGI,XF 498 CNS,> 100 µM
same,TGI,LOX IMVI melanoma,> 100 µM
same,TGI,DMS 114 small cell lung,> 100 µM
same,TGI,HCT-116 colon,> 100 µM
same,TGI,DLD-1 colon,> 100 µM
same,TGI,A498 renal,> 100 µM
same,TGI,MALME-3M melanoma,> 100 µM
same,TGI,HOP-92 NSCLC,> 100 µM
same,TGI,SNB-19 CNS,> 100 µM
same,TGI,KM20L2 colon,> 100 µM
same,TGI,IGROV1 ovarian,> 100 µM
same,TGI,DMS 273 small cell lung,> 100 µM
same,TGI,RXF 393 renal,> 100 µM
same,TGI,OVCAR-4 ovarian,> 100 µM
same,TGI,U251 CNS,> 100 µM
same,TGI,SF-268 CNS,> 100 µM
same,TGI,HCC-2998 colon,> 100 µM
same,TGI,EKVX NSCLC,> 100 µM
same,TGI,ACHN renal,> 100 µM
same,TGI,KM12 colon,> 100 µM
same,TGI,NCI-H23 lung,> 100 µM
same,TGI,M19-MEL melanoma,> 100 µM
same,TGI,SN12C renal,> 100 µM
CCN1C(=O)N(C)C(O)c2c1nc1ccccn1c2=O (centres undefined),TGI,NCI-H226 lung,> 100 µM
same,TGI,SW-620 colon,> 100 µM
same,TGI,UO-31 renal,> 100 µM
same,TGI,SNB-78 CNS,82.5 µM
same,TGI,OVCAR-8 ovarian,46.4 µM
same,TGI,SF-295 CNS,> 100 µM
same,TGI,CCRF-CEM leukemia,95.5 µM
same,TGI,NCI-H522 lung,65.6 µM
same,TGI,SK-MEL-2 melanoma,62.8 µM
same,TGI,A549 NSCLC,98.6 µM
same,TGI,786-0 renal,98.4 µM
same,TGI,SK-MEL-28 melanoma,77.6 µM
same,TGI,SNB-75 CNS,56.7 µM
same,TGI,LXFL 529 NSCLC,> 100 µM
same,TGI,NCI-H460 lung,42.8 µM
same,TGI,SF-539 CNS,54.3 µM
same,TGI,HOP-18 NSCLC,65.3 µM
same,TGI,SK-OV-3 ovarian,59.4 µM
same,TGI,M14 melanoma,> 100 µM
same,TGI,COLO 205 colon,37.6 µM
same,TGI,HCT-15 colon,> 100 µM
same,TGI,MOLT-4 leukemia,> 100 µM
same,TGI,HOP-62 NSCLC,98.6 µM
same,TGI,HL-60(TB) leukemia,90.7 µM
same,TGI,UACC-257 melanoma,> 100 µM
same,TGI,K-562 leukemia,> 100 µM
same,TGI,HT29 colon,70.7 µM
same,TGI,RPMI-8226 leukemia,78.6 µM
same,TGI,UACC-62 melanoma,1.98 µM
same,TGI,TK-10 renal,60.4 µM
same,TGI,XF 498 CNS,83.4 µM
same,TGI,LOX IMVI melanoma,33.2 µM
same,TGI,DMS 114 small cell lung,> 100 µM
same,TGI,HCT-116 colon,84.1 µM
same,TGI,DLD-1 colon,> 100 µM
same,TGI,A498 renal,66.2 µM
same,TGI,MALME-3M melanoma,> 100 µM
same,TGI,HOP-92 NSCLC,62.5 µM
same,TGI,SNB-19 CNS,> 100 µM
same,TGI,KM20L2 colon,59.8 µM
same,TGI,OVCAR-3 ovarian,63.9 µM
same,TGI,IGROV1 ovarian,> 100 µM
same,TGI,DMS 273 small cell lung,42.4 µM
same,TGI,SR leukemia,> 100 µM
same,TGI,RXF 393 renal,59 µM
same,TGI,OVCAR-4 ovarian,> 100 µM
same,TGI,U251 CNS,> 100 µM
same,TGI,SF-268 CNS,68.8 µM
same,TGI,HCC-2998 colon,43.6 µM
same,TGI,EKVX NSCLC,53 µM
same,TGI,ACHN renal,> 100 µM
same,TGI,KM12 colon,> 100 µM
same,TGI,NCI-H23 lung,63.6 µM
same,TGI,M19-MEL melanoma,83.6 µM
same,TGI,SN12C renal,64 µM
Cc1cc(NS(=O)(=O)c2ccc(Nc3c4ccccc4nc4c(C(=O)Nc5ccc(S(N)(=O)=O)cc5)cccc34)cc2)no1,TGI,SW-620 colon,> 100 µM
same,TGI,UO-31 renal,> 100 µM
same,TGI,SK-MEL-5 melanoma,> 100 µM
same,TGI,SNB-78 CNS,60 µM
same,TGI,OVCAR-8 ovarian,> 100 µM
same,TGI,SF-295 CNS,> 100 µM
same,TGI,CCRF-CEM leukemia,79.9 µM
same,TGI,NCI-H522 lung,54.1 µM
same,TGI,SK-MEL-2 melanoma,69.3 µM
same,TGI,A549 NSCLC,> 100 µM
same,TGI,786-0 renal,> 100 µM
same,TGI,SK-MEL-28 melanoma,83.9 µM
same,TGI,SNB-75 CNS,> 100 µM
same,TGI,LXFL 529 NSCLC,44.8 µM
same,TGI,CAKI-1 renal,> 100 µM
same,TGI,NCI-H460 lung,> 100 µM
same,TGI,SF-539 CNS,61.2 µM
same,TGI,HOP-18 NSCLC,> 100 µM
same,TGI,SK-OV-3 ovarian,> 100 µM
same,TGI,M14 melanoma,> 100 µM
same,TGI,COLO 205 colon,> 100 µM
same,TGI,HCT-15 colon,> 100 µM
same,TGI,OVCAR-5 ovarian,> 100 µM
same,TGI,MOLT-4 leukemia,78.9 µM
same,TGI,HOP-62 NSCLC,> 100 µM
same,TGI,UACC-257 melanoma,> 100 µM
same,TGI,K-562 leukemia,> 100 µM
same,TGI,HT29 colon,> 100 µM
same,TGI,RPMI-8226 leukemia,> 100 µM
same,TGI,UACC-62 melanoma,55.8 µM
same,TGI,TK-10 renal,> 100 µM
same,TGI,XF 498 CNS,57.9 µM
same,TGI,LOX IMVI melanoma,> 100 µM
same,TGI,DMS 114 small cell lung,77.3 µM
same,TGI,HCT-116 colon,> 100 µM
same,TGI,DLD-1 colon,> 100 µM
same,TGI,A498 renal,> 100 µM
same,TGI,MALME-3M melanoma,53.1 µM
same,TGI,HOP-92 NSCLC,81.6 µM
same,TGI,SNB-19 CNS,84.9 µM
same,TGI,KM20L2 colon,> 100 µM
same,TGI,OVCAR-3 ovarian,31.7 µM
same,TGI,IGROV1 ovarian,> 100 µM
same,TGI,DMS 273 small cell lung,> 100 µM
same,TGI,RXF 393 renal,> 100 µM
same,TGI,OVCAR-4 ovarian,51.1 µM
same,TGI,U251 CNS,57.4 µM
same,TGI,SF-268 CNS,> 100 µM
same,TGI,EKVX NSCLC,> 100 µM
same,TGI,ACHN renal,> 100 µM
same,TGI,KM12 colon,50.6 µM
same,TGI,NCI-H23 lung,> 100 µM
same,TGI,M19-MEL melanoma,64.8 µM
same,TGI,SN12C renal,> 100 µM
